Data as given in publication PMC5799307, “Creation of a long-acting nanoformulated dolutegravir” (Nature Communications, 2018).

Assays:
[1] = test system: MDM; experiment: LDH cytotoxicity assay in MDM; format: cell-based, human; details: 24 h, 400 µM
[2] = Ex vivo cleavage kinetics of MDTG in mouse whole blood; format: in vitro ADME; details: after 60 min
Experimental: A lipophilic and hydrophobic modified DTG prodrug (called MDTG) was synthesized through myristoylation of the parent drug hydroxyl group. Initially, DTG was dried by co-evaporation from anhydrous pyridine then resuspended in anhydrous DMF and cooled to 0 °C under argon. 2-equivalents DIEA were used to deprotonate the 7-hydroxyl group of DTG, which was then immediately reacted with 2 equivalents myristoyl chloride for 24 h. The resultant product was purified by silica gel column chromatography using an initial mobile phase of 4:1 ethyl acetate: hexanes for 12 fractions, then 9:1 ethyl acetate: hexanes for the remainder. Once purified, fractions containing the UV active prodrug were dried and precipitated from diethyl ether. The precipitate was collected by centrifugation at 3500 r.p.m. for 15 min and dried under vacuum, while the supernatant was discarded. MDTG was synthesized at a final drug yield of 82.8%. Proton nuclear magnetic resonance (^1H NMR), carbon nuclear magnetic resonance (^13C NMR), and Fourier-transform infrared (FTIR) spectroscopy, positive electrospray ionization mass spectroscopy (ESI-MS), and powder X-ray diffraction (XRD) were used to characterize the structure of MDTG. […] ESI-MS specifics (m/z): calculated for C34H45F2N3O6, 629.33 (100%), 630.33 (36.8%), 631.33 (3.9%); found, 630.30. […] The aqueous solubility of DTG and MDTG was evaluated by adding excess drug to water at room temperature then mixing it overnight. […] Solubilized drug in the supernatant was extracted in methanol and measured using a Waters ACQUITY ultra performance liquid chromatography (UPLC) H-Class System with TUV detector and Empower 3 software (Milford, MA). For DTG and MDTG quantitation, drug extracts were separated on a Phenomenex Kinetex 5 μm C18 column (150 × 4.6 mm) (Torrance, CA) using either 65% 50 mM KH2PO4, pH 3.2/35% ACN (DTG) or 90% ACN/10% water (MDTG) with a flow rate of 1.0 mL/min and detected at 254 nm and 230 nm, respectively. Drug content was quantitated by comparison of peak area to those of known standards (0.05–50 µg/mL). Ex vivo cleavage kinetics of MDTG was assessed in mouse whole blood. […]

[3] = Aqueous solubility (excess drug in water, room temperature, overnight, UPLC); format: physicochemical
Experimental: A lipophilic and hydrophobic modified DTG prodrug (called MDTG) was synthesized through myristoylation of the parent drug hydroxyl group. Initially, DTG was dried by co-evaporation from anhydrous pyridine then resuspended in anhydrous DMF and cooled to 0 °C under argon. 2-equivalents DIEA were used to deprotonate the 7-hydroxyl group of DTG, which was then immediately reacted with 2 equivalents myristoyl chloride for 24 h. The resultant product was purified by silica gel column chromatography using an initial mobile phase of 4:1 ethyl acetate: hexanes for 12 fractions, then 9:1 ethyl acetate: hexanes for the remainder. […] ESI-MS specifics (m/z): calculated for C34H45F2N3O6, 629.33 (100%), 630.33 (36.8%), 631.33 (3.9%); found, 630.30. […] The aqueous solubility of DTG and MDTG was evaluated by adding excess drug to water at room temperature then mixing it overnight. […] Solubilized drug in the supernatant was extracted in methanol and measured using a Waters ACQUITY ultra performance liquid chromatography (UPLC) H-Class System with TUV detector and Empower 3 software (Milford, MA). For DTG and MDTG quantitation, drug extracts were separated on a Phenomenex Kinetex 5 μm C18 column (150 × 4.6 mm) (Torrance, CA) using either 65% 50 mM KH2PO4, pH 3.2/35% ACN (DTG) or 90% ACN/10% water (MDTG) with a flow rate of 1.0 mL/min and detected at 254 nm and 230 nm, respectively. […]

Row | MDTG cleaved ([2]; after acetonitrile (ACN) addition) | MDTG hydrolyzed ([2]; blood diluted ten-fold) | MDTG hydrolyzed ([2]; blood spiked with an esterase inhibitor) | MDTG cleaved ([2]; whole blood, room temperature) | decrease in aqueous solubility compared to DTG [3] | Structure (SMILES) | cytotoxicity by LDH [1]
1 |  |  |  |  |  | C[C@@H]1CCO[C@H]2Cn3cc(C(=O)NCc4ccc(F)cc4F)c(=O)c(O)c3C(=O)N12 [DTG, dolutegravir] | changes in cell vitality
2 | 21.9% | 88.7% | 15.2% | 79.9% | 8.7 fold | CCCCCCCCCCCCCC(=O)Oc1c2n(cc(C(=O)NCc3ccc(F)cc3F)c1=O)C[C@@H]1OCC[C@@H](C)N1C2=O [MDTG] | 
